How the values were obtained:
[1] = molecular target: T1, Phosphatidylinositol 3,4,5-trisphosphate 5-phosphatase 2 (Homo sapiens) (UniProt O15357); test: Inhibition of recombinant human truncated SHIP2 using PI(3,4,5)P3diC8 at 500 uM after 30 mins by malachite green phosphatase release assay
T1 sequence (whole entry): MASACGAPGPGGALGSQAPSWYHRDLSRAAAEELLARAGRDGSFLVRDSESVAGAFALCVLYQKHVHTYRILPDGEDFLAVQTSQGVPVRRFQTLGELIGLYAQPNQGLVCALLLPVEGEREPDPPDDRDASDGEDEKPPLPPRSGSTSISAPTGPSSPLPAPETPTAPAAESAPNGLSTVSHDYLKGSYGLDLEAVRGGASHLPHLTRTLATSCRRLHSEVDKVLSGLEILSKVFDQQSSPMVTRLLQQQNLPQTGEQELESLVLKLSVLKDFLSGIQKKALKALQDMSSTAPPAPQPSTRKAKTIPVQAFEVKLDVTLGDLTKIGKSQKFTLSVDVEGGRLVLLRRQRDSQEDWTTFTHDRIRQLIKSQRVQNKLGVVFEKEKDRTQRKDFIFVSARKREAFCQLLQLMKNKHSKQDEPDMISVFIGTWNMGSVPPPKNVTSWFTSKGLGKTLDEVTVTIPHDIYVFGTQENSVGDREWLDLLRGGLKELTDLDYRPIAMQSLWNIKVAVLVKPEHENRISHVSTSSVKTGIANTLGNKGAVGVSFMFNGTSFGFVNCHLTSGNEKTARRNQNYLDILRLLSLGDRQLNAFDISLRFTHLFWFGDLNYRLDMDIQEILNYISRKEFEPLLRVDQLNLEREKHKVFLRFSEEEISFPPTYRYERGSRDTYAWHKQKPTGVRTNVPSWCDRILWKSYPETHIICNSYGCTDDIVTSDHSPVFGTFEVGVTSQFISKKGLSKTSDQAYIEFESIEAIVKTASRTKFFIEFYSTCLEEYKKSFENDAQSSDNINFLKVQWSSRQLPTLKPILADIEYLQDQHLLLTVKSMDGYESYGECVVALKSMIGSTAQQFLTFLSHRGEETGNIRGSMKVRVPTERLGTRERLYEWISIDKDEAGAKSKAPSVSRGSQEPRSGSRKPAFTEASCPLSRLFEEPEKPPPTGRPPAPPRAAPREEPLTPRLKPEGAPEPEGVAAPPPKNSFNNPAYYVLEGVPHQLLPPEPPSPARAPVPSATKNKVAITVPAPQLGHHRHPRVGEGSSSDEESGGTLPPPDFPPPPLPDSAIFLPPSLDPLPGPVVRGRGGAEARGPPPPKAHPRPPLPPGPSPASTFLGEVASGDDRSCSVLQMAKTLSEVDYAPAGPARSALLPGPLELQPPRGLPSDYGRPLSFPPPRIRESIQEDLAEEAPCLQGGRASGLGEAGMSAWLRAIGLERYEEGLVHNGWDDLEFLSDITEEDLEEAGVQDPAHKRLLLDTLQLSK

[2] = molecular target: T2, Phosphatidylinositol 3,4,5-trisphosphate 5-phosphatase 1 (Homo sapiens) (UniProt Q92835); test: Inhibition of recombinant human truncated SHIP1 using PI(3,4,5)P3diC8 at 500 uM after 30 mins by malachite green phosphatase release assay
T2 sequence (whole entry): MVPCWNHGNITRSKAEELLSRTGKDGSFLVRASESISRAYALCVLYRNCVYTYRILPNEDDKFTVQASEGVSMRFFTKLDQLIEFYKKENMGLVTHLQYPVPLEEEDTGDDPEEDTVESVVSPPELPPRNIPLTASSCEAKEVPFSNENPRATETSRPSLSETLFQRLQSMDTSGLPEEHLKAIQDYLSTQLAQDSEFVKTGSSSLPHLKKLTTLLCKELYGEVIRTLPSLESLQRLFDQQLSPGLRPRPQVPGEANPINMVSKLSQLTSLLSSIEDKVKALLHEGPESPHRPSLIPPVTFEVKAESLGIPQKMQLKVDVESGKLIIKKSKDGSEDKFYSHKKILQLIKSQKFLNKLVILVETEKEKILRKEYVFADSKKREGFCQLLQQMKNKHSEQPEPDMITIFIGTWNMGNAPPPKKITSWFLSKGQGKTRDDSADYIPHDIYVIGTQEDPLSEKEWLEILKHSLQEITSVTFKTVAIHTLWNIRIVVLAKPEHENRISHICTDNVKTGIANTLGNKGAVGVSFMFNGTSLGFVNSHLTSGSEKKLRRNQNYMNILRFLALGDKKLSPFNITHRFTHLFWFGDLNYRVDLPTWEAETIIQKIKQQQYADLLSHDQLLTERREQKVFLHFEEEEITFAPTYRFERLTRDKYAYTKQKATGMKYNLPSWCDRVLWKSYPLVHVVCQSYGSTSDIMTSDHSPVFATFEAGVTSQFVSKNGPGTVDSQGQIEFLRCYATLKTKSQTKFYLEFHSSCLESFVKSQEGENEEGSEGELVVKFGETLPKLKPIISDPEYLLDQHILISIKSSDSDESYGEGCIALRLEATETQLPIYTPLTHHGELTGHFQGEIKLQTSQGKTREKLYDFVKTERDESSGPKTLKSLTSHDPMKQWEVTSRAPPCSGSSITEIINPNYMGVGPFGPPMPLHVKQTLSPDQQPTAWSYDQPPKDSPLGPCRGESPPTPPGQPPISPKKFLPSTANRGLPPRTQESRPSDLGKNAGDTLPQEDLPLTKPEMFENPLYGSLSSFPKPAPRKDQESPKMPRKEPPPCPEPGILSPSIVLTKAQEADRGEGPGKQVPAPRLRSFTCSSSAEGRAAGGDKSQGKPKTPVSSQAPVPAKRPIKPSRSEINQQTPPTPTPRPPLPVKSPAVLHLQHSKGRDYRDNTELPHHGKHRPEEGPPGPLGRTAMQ

[3] = molecular target: T2, Phosphatidylinositol 3,4,5-trisphosphate 5-phosphatase 1 (Homo sapiens); test: Inhibition of recombinant human truncated SHIP1 using PI(3,4,5)P3diC8 at 1 mM after 30 mins by malachite green phosphatase release assay
[4] = molecular target: T1, Phosphatidylinositol 3,4,5-trisphosphate 5-phosphatase 2 (Homo sapiens); test: Inhibition of recombinant human truncated SHIP2 using PI(3,4,5)P3diC8 at 1 mM after 30 mins by malachite green phosphatase release assay

Row | SMILES | inhibition [1] | inhibition [2] | inhibition [3] | inhibition [4]
1 | O=C(O)c1cc(C23CC4CC(CC(C4)C2)C3)nc2c(Cl)cc(Cl)cc12 | 0% | 44% | – | –
2 | OCc1cc(-c2ccccc2)nc2c1ccc1ccccc12 | 18% | 2% | – | –
3 | C=C[C@H]1CN2CC[C@H]1C[C@H]2[C@H](O)c1ccnc2ccc(OC)cc12 | – | – | 0% | 8%
4 | C=C[C@H]1CN2CC[C@H]1C[C@@H]2[C@@H](O)c1ccnc2ccc(OC)cc12 | – | – | 19% | 5%
5 | OC(c1cc(C23CC4CC(CC(C4)C2)C3)nc2c(Cl)cc(Cl)cc12)C1CCCCN1 (centres undefined) | – | – | 38% | 73%
6 | O=C(O)c1cc(-c2ccccc2)nc2c1ccc1ccccc12 | 0% | 7% | – | –
7 | OC(c1cc(C(F)(F)F)nc2c(C(F)(F)F)cccc12)C1CCCCN1 (centres undefined) | – | – | 54% | 54%
8 | CN[C@@H](C)[C@@H](O)c1ccccc1 | – | – | 2% | 13%
9 | CN[C@@H](C)[C@H](O)c1ccccc1 | – | – | 0% | 0%
10 | OC(c1cc(-c2ccccc2)nc2c1ccc1ccccc12)C1CCCCN1 (centres undefined) | – | – | 38% | 17%
11 | NCc1cc(-c2ccccc2)nc2c1ccc1ccccc12 | – | – | 41% | 66%
12 | OCc1cc(C23CC4CC(CC(C4)C2)C3)nc2c(Cl)cc(Cl)cc12 | 14% | 0% | – | –

— ChEMBL document CHEMBL3627712, “Synthesis and initial evaluation of quinoline-based inhibitors of the SH2-containing inositol 5'-phosphatase (SHIP)” (Bioorg Med Chem Lett, 2015)
